Series [1] deals with T1, Peroxisome proliferator-activated receptor alpha (Homo sapiens) (UniProt Q07869).
T1 sequence (whole entry): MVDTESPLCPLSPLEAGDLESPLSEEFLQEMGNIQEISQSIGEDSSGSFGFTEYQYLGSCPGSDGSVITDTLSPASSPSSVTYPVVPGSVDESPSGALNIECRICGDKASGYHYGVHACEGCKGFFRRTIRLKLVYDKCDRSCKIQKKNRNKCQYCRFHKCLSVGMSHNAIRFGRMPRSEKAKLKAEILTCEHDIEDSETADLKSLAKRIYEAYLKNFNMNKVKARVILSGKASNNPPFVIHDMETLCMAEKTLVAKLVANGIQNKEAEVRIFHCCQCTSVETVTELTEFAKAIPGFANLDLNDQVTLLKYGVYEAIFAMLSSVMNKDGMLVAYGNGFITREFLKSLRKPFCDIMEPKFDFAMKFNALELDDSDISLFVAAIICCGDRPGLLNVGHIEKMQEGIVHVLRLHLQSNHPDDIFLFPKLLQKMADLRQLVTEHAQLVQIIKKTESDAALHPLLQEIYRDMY
As to the kind of experiment: Modulation of human PPARalpha-LBD expressed in african green monkey COS7 cells co-transfected with Gal4 assessed as activation of transactivation activity at 10 uM by luciferase assay. The class given is cell-based. Particulars: COS-7.

The target of series [2] is T2, Peroxisome proliferator-activated receptor delta (Homo sapiens) (UniProt Q03181).
T2 sequence (whole entry): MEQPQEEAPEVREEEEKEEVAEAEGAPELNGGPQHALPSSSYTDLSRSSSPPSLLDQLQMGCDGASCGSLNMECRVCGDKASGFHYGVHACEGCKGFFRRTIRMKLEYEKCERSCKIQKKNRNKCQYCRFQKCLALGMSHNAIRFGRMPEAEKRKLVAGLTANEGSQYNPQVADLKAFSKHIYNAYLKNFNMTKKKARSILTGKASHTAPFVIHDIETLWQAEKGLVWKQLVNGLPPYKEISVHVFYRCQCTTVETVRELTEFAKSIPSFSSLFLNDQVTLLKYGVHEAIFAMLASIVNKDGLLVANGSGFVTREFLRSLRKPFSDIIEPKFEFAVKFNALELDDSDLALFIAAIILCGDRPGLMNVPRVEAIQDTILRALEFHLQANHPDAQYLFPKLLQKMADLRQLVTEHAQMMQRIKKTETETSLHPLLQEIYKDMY
As to the kind of experiment: Modulation of human PPARdelta-LBD expressed in african green monkey COS7 cells co-transfected with Gal4 assessed as activation of transactivation activity at 10 uM by luciferase assay. The class given is cell-based. Particulars: COS-7.

Series [3] concerns the target T3, Peroxisome proliferator-activated receptor gamma (Homo sapiens, UniProt P37231).
T3 sequence (P37231 whole entry): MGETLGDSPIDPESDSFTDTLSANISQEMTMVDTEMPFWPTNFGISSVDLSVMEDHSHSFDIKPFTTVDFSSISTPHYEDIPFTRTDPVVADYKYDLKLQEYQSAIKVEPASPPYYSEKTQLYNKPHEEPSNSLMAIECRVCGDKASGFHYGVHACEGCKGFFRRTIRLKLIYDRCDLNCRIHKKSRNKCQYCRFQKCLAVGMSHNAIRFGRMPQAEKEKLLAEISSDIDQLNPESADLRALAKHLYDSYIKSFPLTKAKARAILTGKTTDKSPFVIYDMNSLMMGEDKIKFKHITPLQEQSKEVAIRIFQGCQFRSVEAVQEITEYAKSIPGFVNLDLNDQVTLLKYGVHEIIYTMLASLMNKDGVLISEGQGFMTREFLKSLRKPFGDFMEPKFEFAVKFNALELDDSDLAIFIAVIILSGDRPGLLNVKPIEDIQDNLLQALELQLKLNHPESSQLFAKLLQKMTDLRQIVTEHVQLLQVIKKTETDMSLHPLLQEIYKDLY
As to the kind of experiment: Modulation of human PPARgamma-LBD expressed in african green monkey COS7 cells co-transfected with Gal4 assessed as activation of transactivation activity by luciferase assay. The class given is cell-based, COS-7.

The target in series [4] is T4, Peroxisome proliferator-activated receptor gamma (Homo sapiens) (UniProt P37231).
T4 sequence (whole entry): T3 sequence (P37231 whole entry)
In words: Modulation of human PPARgamma-LBD expressed in african green monkey COS7 cells co-transfected with Gal4 assessed as activation of transactivation activity by luciferase assay relative to pioglitazone. The class given is cell-based. Particulars: COS-7.

A short description of series [5]: Modulation of gamma-secretase expressed in CHO cells co-expressing human APP and wild type human presenilin-1 assessed as inhibition of amyloid beta42 production by ELISA. The class given is cell-based. (In general: An ELISA detects its analyte on a solid surface through an enzyme-linked reagent.)
Series [6] in a line: Modulation of gamma-secretase expressed in CHO cells co-expressing human APP and wild type human presenilin-1 assessed as increase of amyloid beta38 production by ELISA. The class given is cell-based.
Series [7] has as its target T5, Prostaglandin G/H synthase 1 (Ovis aries) (UniProt P05979).
T5 sequence (whole entry): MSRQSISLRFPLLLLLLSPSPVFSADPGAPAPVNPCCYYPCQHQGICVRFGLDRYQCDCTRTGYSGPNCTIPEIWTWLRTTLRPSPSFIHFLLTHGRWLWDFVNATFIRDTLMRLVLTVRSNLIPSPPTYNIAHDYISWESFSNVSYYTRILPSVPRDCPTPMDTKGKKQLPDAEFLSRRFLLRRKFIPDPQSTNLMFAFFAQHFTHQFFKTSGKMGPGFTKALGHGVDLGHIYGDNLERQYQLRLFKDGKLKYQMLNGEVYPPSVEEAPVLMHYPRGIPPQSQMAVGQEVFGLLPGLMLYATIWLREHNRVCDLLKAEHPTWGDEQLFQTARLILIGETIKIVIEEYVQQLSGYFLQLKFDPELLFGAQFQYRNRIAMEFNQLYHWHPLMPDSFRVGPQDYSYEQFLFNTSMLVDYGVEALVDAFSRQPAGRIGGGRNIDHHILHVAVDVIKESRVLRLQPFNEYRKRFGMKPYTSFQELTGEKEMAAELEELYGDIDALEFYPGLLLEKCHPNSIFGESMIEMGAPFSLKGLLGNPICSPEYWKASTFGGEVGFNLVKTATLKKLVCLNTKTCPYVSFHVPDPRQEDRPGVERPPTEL
As to the kind of experiment: Inhibition of ovine COX-1 assessed as residual activity by measuring formation of 12-HHT from arachidonic acid at 10 uM by HPLC analysis.

Series [8] concerns the target T6, Prostaglandin G/H synthase 2 (Homo sapiens) (UniProt P35354).
T6 sequence (whole entry): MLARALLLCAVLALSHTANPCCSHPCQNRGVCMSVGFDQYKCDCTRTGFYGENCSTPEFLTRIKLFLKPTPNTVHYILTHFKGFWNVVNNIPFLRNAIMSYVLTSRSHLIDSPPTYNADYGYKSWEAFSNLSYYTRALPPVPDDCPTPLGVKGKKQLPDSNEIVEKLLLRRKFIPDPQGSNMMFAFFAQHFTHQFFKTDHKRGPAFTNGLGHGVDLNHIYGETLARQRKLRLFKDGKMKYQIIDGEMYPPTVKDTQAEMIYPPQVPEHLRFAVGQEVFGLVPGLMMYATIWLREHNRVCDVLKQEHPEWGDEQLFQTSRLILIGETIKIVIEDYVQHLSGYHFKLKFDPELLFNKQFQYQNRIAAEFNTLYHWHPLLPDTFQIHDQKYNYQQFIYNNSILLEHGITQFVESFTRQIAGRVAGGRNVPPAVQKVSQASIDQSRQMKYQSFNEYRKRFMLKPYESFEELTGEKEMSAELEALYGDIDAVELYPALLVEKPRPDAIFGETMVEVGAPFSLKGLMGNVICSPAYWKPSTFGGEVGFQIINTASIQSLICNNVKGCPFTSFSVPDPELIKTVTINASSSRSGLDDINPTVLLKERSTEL
As to the kind of experiment: Inhibition of human recombinant COX-2 assessed as residual activity by measuring formation of 12-HHT from arachidonic acid at 10 uM by HPLC analysis.

The test system of a further series is CHO. As to the kind of experiment: Cytotoxicity against CHO cells expressing human APP and wild type human presenilin-1 assessed as reduction of cell viability up to 40 uM after 24 hrs by Alamar blue assay. The class given is cell-based, Cricetulus griseus. Particulars: chinese hamster. For orientation: Alamar Blue is a resazurin reagent that responds to reducing activity.

Active and inactive are the calls of the source. No cut-off for these calls is given here.

One may read the EC50 as the concentration giving half of the maximal effect. By IC50 is commonly meant the midpoint of a concentration-inhibition curve.

`CCCCC(Cc1ccc(OCCc2ccccc2)c(OCCc2ccccc2)c1)C(=O)O` (stereo unspecified): the outcome in series [1] and in [2] was inactive. Besides, the EC50 in [3] is 2.2 µM; in [6], over 40 µM. Further, the Emax in [4] came out at 100%. In addition, the IC50 in [5] was over 40 µM. Further, the Activity was 95.8% in [7], 86.4% in [8] and “Non-toxic” in the series on CHO.
Consider `CCCC/C(=C\c1cc(OCCc2ccccc2)ccc1OCCc1ccccc1)C(=O)O`, for which the result in series [1] and in series [2] was inactive. Further, the figures for the EC50 in series [3] and in [6] were 1.8 µM and 6.7 µM, respectively. The Emax in [4] was 47%. In series [5], the IC50 turned out to be 15.4 µM. Further, the Activity in series [7] was 68%; in [8], 94.4%; with CHO it was “Non-toxic”.
On to `CCCCC(Sc1cc(OCCc2ccccc2)cc(OCCc2ccccc2)c1)C(=O)O` (stereo unspecified), for which the result in [1] and in [2] was inactive. Also, the EC50 is 3.4 µM in [3] and 22.2 µM in series [6]. The Emax in [4] was determined as 73%. Moreover, in series [5], the IC50 was determined as 32.7 µM. The figures for the Activity (in series [7]; in series [8]; in the series with CHO) were 71.3%, 110% and “Non-toxic”, respectively.
As to `CCCCC(Oc1cc(OCCc2ccccc2)cc(OCCc2ccccc2)c1)C(=O)O` (stereo unspecified), the result in [1] and in series [2] was inactive. Moreover, the EC50 is 4.8 µM in [3] and 26.4 µM in series [6]. In [4], the Emax was found to be 46%. For the same compound, in series [5], the IC50 is 33.7 µM. Also, the values for the Activity (in series [7]; in series [8]; with CHO) were 71.6%, 92.5% and “Non-toxic”, respectively.
For `CCCC/C(=C\c1cc(OCCc2ccccc2)cc(OCCc2ccccc2)c1)C(=O)O`, the result in series [1] and in [2] was inactive. Also, the EC50 came out at 7.8 µM in series [3] and 27.3 µM in [6]. For the same compound, the Emax in series [4] was determined as 95%. In addition, the IC50 in series [5] amounted to 37.9 µM. Further, the figures for the Activity (in series [7]; in [8]; in the series with CHO) were 81.4%, 81.4% and “Non-toxic”, respectively.
Turning to `CCCCC(Cc1ccc(OCCC2CCCCC2)c(OCCc2ccccc2)c1)C(=O)O` (stereo unspecified), the result in series [1] and in series [2] was inactive. The EC50 was 2.5 µM in [3] and over 40 µM in series [6]. The Emax in series [4] is 61%. Further, in series [5], the IC50 was over 40 µM. Further, the Activity in series [7] is 69.1%; in [8], 91.5%; in the series with CHO, “Non-toxic”.
`CCCCC(Cc1ccc(OCCc2ccccc2)c(OCCC2CCCCC2)c1)C(=O)O` (stereo unspecified): the outcome in [1] and in [2] was inactive. Also, the EC50 was 1.5 µM in series [3] and over 40 µM in [6]. The Emax in series [4] was found to be 128%. Also, the IC50 in series [5] was over 40 µM. In addition, the figures for the Activity (in series [7]; in series [8]; with CHO) were 82%, 96.6% and “Non-toxic”, respectively.
Turning to `CCCCC(Cc1cc(OCCc2ccccc2)cc(OCCc2ccccc2)c1)C(=O)O` (stereo unspecified), the result in series [1] and in series [2] was inactive. Also, the EC50 in series [3] came to 4.7 µM; in series [6], 28.1 µM. Moreover, the Emax in series [4] worked out at 71%. For the same compound, in series [5], the IC50 amounted to 38.4 µM. Besides, the figures for the Activity (in [7]; in series [8]; in the series on CHO) were 78.7%, 78.4% and “Non-toxic”, respectively.
`CCCCC(Cc1ccc(OCCC2CCCCC2)c(OCCC2CCCCC2)c1)C(=O)O` (stereo unspecified): the result in [1] and in series [2] was inactive. Moreover, the figures for the EC50 in [3] and in series [6] were 1.1 µM and over 40 µM, respectively. In series [4], the Emax stood at 69%. Further, the IC50 in series [5] is over 40 µM. In addition, the Activity in [7] was 73.8%; in [8] it was 79.1%; in the series on CHO, “Non-toxic”.
`CCCCC(Sc1nc(OCCC2CCCCC2)cc(OCCC2CCCCC2)n1)C(=O)O` (stereo unspecified): the IC50 in [5] amounted to 6 µM. Moreover, in the series on CHO, the Activity result is on record as “Non-toxic”.
Turning to `CCCCC(Cc1cc(OCCc2ccccc2)ccc1OCCc1ccccc1)C(=O)O` (stereo unspecified), the result in [1] and in series [2] was inactive. The EC50 is 10.8 µM in [3] and 14.5 µM in [6]. The Emax in series [4] was 97%. Further, in series [5], the IC50 was determined as 19.1 µM. The Activity was 63.8% in series [7], 66.5% in [8] and “Non-toxic” in the series on CHO.
Take `CCCCC(Cc1cccc(OCCc2ccccc2)c1OCCc1ccccc1)C(=O)O` (stereo unspecified): the result in series [1] and in series [2] was inactive. Also, the EC50 in series [3] is 3.7 µM; in [6], over 40 µM. In addition, in [4], the Emax came out at 79%. In addition, in series [5], the IC50 is over 40 µM. The Activity in series [7] was 66.1%; in series [8], 89.6%; in the series on CHO, “Non-toxic”.
